The values that follow come from US9963480B2, “Nucleoside phosphoramidate compound and use thereof” (priority 2013, dated 2018).

Holding throughout (type): cell-based
For data set [1], the system named is J399EM (HCV genotype 2a) virus. The data set can be described thus: Antiviral activity assay in the cell-culture-derived infectious HCV (HCVcc) system. Particulars: for half maximal effective concentration (EC50) against the HCVcc GT2a viruses, in words: in vitro HCVcc system. How it is done:
The compound according to the above example 1 was used in this experiment. The compound was formulated into a 10 mM mother liquid with DMSO, diluted to 500 nM by DMEM complete culture medium containing 0.5% of DMSO, followed by 4-fold dilution successively, and six concentrations were obtained. The positive control was diluted to 10 μM by DMEM complete culture medium containing 0.5% of DMSO, followed by 4-fold successively, and six concentrations were obtained.
(§1) Huh 7.5.1 cells, provided by Shanghai Institute of Materia Medica, Chinese Academy of Sciences.
J399EM (HCV genotype 2a) virus, i.e. a full length HCV mutant strain transfected with EGFP (enhanced green fluorescent protein) was used, which had the same infection capacity as the wild type JFH-1. The NS5A-EGFP fusion protein fluorescence was observed directly in infected cells by inserting EGFP coding sequence in the NS5A region. J399EM was provided by Shanghai Institute of Materia Medica, Chinese Academy of Sciences.
(§2) • 1) Huh 7.5.1 cells preparation: collecting the Huh7.5.1 cells in logarithmic phase, resuspending in DMEM complete culture medium, seeding into 96-well plates (7×10^3 cells/well), and incubating in a 37° C., 5% CO2 incubator for 24 h; • 2) virus infection: resuspending J399EM viruses in DMEM complete culture medium, adding the virus supernatant (MOI≈0.1) to the above 96-well plates, and washing with PBS after 8 hours of infection; • 3) drug treatment: adding various concentrations of the compounds to the Huh7.5.1 cells infected by J399EM viruses, with each concentration in duplicate; setting the control group with zero percent effect (ZPE) and the control group with hundred percent effect (HPE); replacing the compound with the DMEM complete culture medium containing 0.5% DMSO in ZPE group, and using the cells not infected with viruses in HPE group. • 4) cells incubation: incubating the 96-well plates in a 37° C., 5% CO2 incubator for 72 hr; • 5) anti-HCV activity detection: reading the relative fluorescence units (RFU) of each well by EnVision® Multi label Plate readers after incubation, and calculating the anti-HCV activity of the compounds using the obtained data according to the following formula: Inhibition %=(RFUZPE−RFUCPD)/(RFUZPE−RFUHPE)×100 • wherein RFUZPE represents the relative fluorescence units of the control group with zero percent effect and RFUCPD represents the relative fluorescence units of the corresponding compound group, and RFUHPE represents the relative fluorescence units of the control group with hundred percent effect. • 6) Cell viability detection: adding MTT solution to each well, incubating in a 37° C., 5% CO2 incubator for 4 hr, followed by addition of MTT dissolving solution, reading optical density (OD) of each well at 570 nm by the Multi label Plate readers after 6 hr, calculating the cytotoxicity of the compounds using the obtained data according to the following formula: Viability %=ODCPD/ODZPE×100 • wherein ODZPE represents the optical density of the control group with zero percent effect, and ODCPD represents the optical density of the corresponding compound; • 7) Data processing: processing the Inhibition %, Viability % by GraphPad Prism Software respectively, and obtaining the half maximal effective concentration (EC50) values and half maximal cytotoxic concentration (CC50) values of the compounds against the HVCcc GT2a viruses.

For a further data set, the system named is HCV 1b replicon. The data set can be described thus: Antiviral activity assay in HCV replicon system (Huh7 1b cells, luciferase reporter). As to conditions: Hepatitis C virus, Huh-7; Huh7 1b cells with HCV 1b replicon, Bright-Glo luciferase, 72 h; read-out: EC50. The source says:
The cell line Huh7 1b, which was provided by WuXi AppTec Co., Ltd. in Shanghai, contained an HCV 1b replicon with a stable Luciferase (Luc) reporter. It was constructed by cloning HCV nonstructural protein gene, neo (G418 resistance) and luciferase reporter gene into the pBR vector through gene recombination technology. Then the vector carrying the HCV replicon was transfected into Huh7 cells, and the transfected Huh7 cells were screened by G418 resistance. The HCV replicon was stably replicated, and the related protein and luciferase were stably expressed in Huh7 cells. The cells model was used for in-vitro screen of anti-HCV compounds. The anti-HCV activity of the compounds was measured by detecting the level of luciferase expression. See Lohmann V, et al. 1999. Replication of subgenomic hepatitis C virus RNAs in a hepatoma cell line. Science. 285(5424):110-113.
The control drug used in this experimental example was the compound of Example 25 in WO 2008/121634 (PCT/US2008/058183), i.e. (S)-2-{[(2R,3R,4R,5R)-5-(2,4-dioxo-3,4-dihydro-2H-pyrimidin-1-yl)-4-fluoro-3-hydr oxy-4-methyl-tetrahydro-furan-2-ylmethoxy]-phenoxy-phosphorylamino}-propanoic acid isopropyl ester. This compound was prepared according to the method described in J. Org. chem, 2011, 76, 8311-8319, and identified by H-NMR and mass spectrometry.
• 2.1 compound preparation: adding each of the compounds listed in Table 2 to 96-well plates using a POD™ 810 Automation Platform (LabCyte Corporation, USA), with 10 μM of each of the compounds as a starting concentration and in duplicate; serially diluting each of the compounds in 3-fold fashion and formulating 10 concentrations, with the final concentration of DMSO being 0.5%; • 2.2 cells preparation: seeding the Huh71b cells into 96-well plates respectively with a volume of 125 μl and 8×10^3 cells/well, and incubating in a 37° C., 5% CO2 incubator for 72 h; • 2.3 detection of cell activity: adding 30 μl per cell of the CellTiter-Fluor™ Reagent, incubating in a 37° C., 5% CO2 incubator for 1 h, measuring the fluorescence signal values with a fluorometer, and using the obtained data for calculation of cytotoxicities of the compounds; • 2.4 Bright-Glo detection: adding 100 μl per well of the Bright-Glo™ Luciferase Substrate, using a chemiluminescence detection system EnVision™ (PerkinElmer, USA) to detect the fluorescence signal values within 5 minutes, and using the obtained data for calculation of potencies of the compounds. • 2.5 data processing: converting the obtained data to a percentage of cell viability (Viability %) using the following formula:
[formula] • CPD: fluorescence signal value of the well added with the compound • ZPE (Zero percent effect): fluorescence signal value of the control well with zero percent effect. • Processing the raw data to calculate a percentage of inhibition (Inhibition %) using the following formula:
[formula] • CPD: fluorescence signal value of the well added with the compound; • HPE (Hundred percent effect): fluorescence signal value of the control well with hundred percent effect; • ZPE (Zero percent effect): fluorescence signal value of the control well with zero percent effect.
The inhibition percentage was processed by the GraphPad Prism software to obtain the corresponding curves and EC50 values.
(In general: Replicon systems follow genome replication, usually without infectious particles.)

In the next data set the test system is Huh 7.5.1 cells. The data set can be described thus: Cell viability detection (MTT) in the HCVcc system. Particulars: in vitro HCVcc system. Here is the method:
as §1, §2

Data set [2] is described as follows: Cell viability detection (MTT) in the HCVcc system. As to conditions: human, Huh 7.5.1 cells infected with J399EM virus (HCVcc); Huh 7.5.1 cells, MTT, 72 hr. How it is done: as §1, §2

As a reminder, the EC50 is the concentration needed to bring the measured effect to its halfway point. For the compound `CC(C)OC(=O)[C@H](C)NP(=O)(OC[C@H]1O[C@@H](n2ccc(=O)[nH]c2=O)[C@](C)(F)[C@@H]1O)Oc1ccc(-c2csnn2)cc1` (stereo partly drawn) [Example 12], the “half maximal effective concentration (EC50) against the HCVcc GT2a viruses, in words” value (“half maximal effective concentration” for short) in data set [1] is listed as “low”. Moreover, the EC50 with HCV 1b replicon is 637 nM. The “half maximal cytotoxic concentration (CC50), in words” value (“half maximal cytotoxic concentration” for short) in the data set with Huh 7.5.1 cells is reported as “high”.

The term CC50 denotes the concentration that lowers cell viability or growth by half. A low value points to greater toxicity to the cells. Take `CC(C)OC(=O)[C@H](C)NP(=O)(OC[C@H]1O[C@@H](n2ccc(=O)[nH]c2=O)[C@](C)(F)[C@@H]1O)Oc1ccccc1` (stereo partly drawn) [Positive control, (S)-2-{[(2R,3R,4R,5R)-5-(2,4-dioxo-3,4-dihydro-2H-pyrimidin-1-yl)-4-fluoro-3-hydroxy-4-methyl-tetrahydro-furan-2-ylmethoxy]-phenoxy-phosphorylamino}-propanoic acid isopropyl ester, reference compound]: the EC50 is 173 nM in data set [1] (Hepatitis C virus, Huh-7.5.1, 72 h) and 117 nM with HCV 1b replicon. The CC50 at 72 h in data set [2] is over 10 µM.

In the case of `CC(C)OC(=O)[C@H](C)NP(=O)(OC[C@H]1O[C@@H](n2ccc(=O)[nH]c2=O)[C@](C)(F)[C@@H]1O)Oc1ccc(-c2cscn2)cc1` (stereo partly drawn) [Example 38, (2S)-2-(((4-(thiazol-4-yl)phenyloxy)(((2R,3R,4R,5R)-5-(2,4-dioxo-3,4-dihydropyrimidin-1(2H)-yl)-4-fluoro-3-hydroxy-4-methyltetrahydrofuran-2-yl)methoxy)phosphoryl)amino)propanoic Acid Isopropyl Ester], the “half maximal effective concentration” value in data set [1] was “low”. For the same compound, in the data set on HCV 1b replicon, the EC50 was found to be 100 nM. Further, the “half maximal cytotoxic concentration” value in the data set with Huh 7.5.1 cells is reported as “high”.

Consider `CC(C)OC(=O)[C@H](C)NP(=O)(OC[C@H]1O[C@@H](n2ccc(=O)[nH]c2=O)[C@](C)(F)[C@@H]1O)Oc1ccc(-c2ccccc2)c(F)c1` (stereo partly drawn) [Example 28, (2S)-2-(((2-fluoro-[1,1′-biphenyl]-4-yloxy)(((2R,3R,4R,5R)-5-(2,4-dioxo-3,4-dihydropyrimidin-1(2H)-yl)-4-fluoro-3-hydroxy-4-methyltetrahydrofuran-2-yl)methoxy)phosphoryl)amino)propanoic Acid Isopropyl Ester], for which, in data set [1], the “half maximal effective concentration” value is on record as “low”. Also, the EC50 in the data set with HCV 1b replicon came out at 123 nM. For the same compound, the “half maximal cytotoxic concentration” value in the data set with Huh 7.5.1 cells was “high”.

Take `CC(C)OC(=O)[C@H](C)NP(=O)(OC[C@H]1O[C@@H](n2ccc(=O)[nH]c2=O)[C@](C)(F)[C@@H]1O)Oc1ccc(-c2ccc(F)cc2)cc1` (stereo partly drawn) [Example 5]: in data set [1], the “half maximal effective concentration” value is “low”. In the data set with HCV 1b replicon, the EC50 worked out at 61 nM. In the data set on Huh 7.5.1 cells, the “half maximal cytotoxic concentration” value is given as “high”.

For the compound `CC(C)OC(=O)[C@H](C)NP(=O)(OC[C@H]1O[C@@H](n2ccc(=O)[nH]c2=O)[C@](C)(F)[C@@H]1O)Oc1ccc(-c2nccs2)cc1` (stereo partly drawn) [Example 16], in data set [1], the “half maximal effective concentration” value was “low”. In addition, in the data set on HCV 1b replicon, the EC50 is 3870 nM. Moreover, the “half maximal cytotoxic concentration” value in the data set with Huh 7.5.1 cells is recorded as “high”.

On to `CC(C)OC(=O)[C@H](C)NP(=O)(OC[C@H]1O[C@@H](n2ccc(=O)[nH]c2=O)[C@](C)(F)[C@@H]1O)Oc1cccc(-c2ccccc2)c1` (stereo partly drawn) [Example 2, (2S)-2-((([1,1′-biphenyl]-3-yloxy)(((2R,3R,4R,5R)-5-(2,4-dioxo-3,4-dihydropyrimidin-1(2H)-yl)-4-fluoro-3-hydroxy-4-methyltetrahydrofuran-2-yl)methoxy)phosphoryl)amino)propanoic Acid Isopropyl Ester], for which, in data set [1], the “half maximal effective concentration” value is recorded as “low”. Moreover, the EC50 with HCV 1b replicon is 105 nM. In addition, the “half maximal cytotoxic concentration” value with Huh 7.5.1 cells was “high”.

`CC(C)OC(=O)[C@H](C)NP(=O)(OC[C@H]1O[C@@H](n2ccc(=O)[nH]c2=O)[C@](C)(F)[C@@H]1O)Oc1ccc(-c2ccc(C#N)cc2)cc1` (stereo partly drawn) [Example 18]: the “half maximal effective concentration” value in data set [1] is “low”. In the data set on HCV 1b replicon, the EC50 worked out at 314 nM. In the data set with Huh 7.5.1 cells, the “half maximal cytotoxic concentration” value is “high”.

As to `Cc1cc2c(F)c(O[P@](=O)(N[C@@H](C)C(=O)OC(C)C)OC[C@H]3O[C@@H](n4ccc(=O)[nH]c4=O)[C@](C)(F)[C@@H]3O)ccc2n1C` [Example 33, (2S)-2-(((S)-((4-fluoro-1,2-dimethyl-1H-indol-5-yl)oxy)(((2R,3R,4R,5R)-5-(2,4-dioxo-3,4-dihydropyrimidin-1(2H)-yl)-4-fluoro-3-hydroxy-4-methyltetrahydrofuran-2-yl)methoxy)phosphoryl)amino)propanoic Acid Isopropyl Ester], the EC50 in the data set on HCV 1b replicon was 33 nM.

Turning to `CC(C)OC(=O)[C@H](C)NP(=O)(OC[C@H]1O[C@@H](n2ccc(=O)[nH]c2=O)[C@](C)(F)[C@@H]1O)Oc1ccc(-c2cccc(Cl)c2)cc1` (stereo partly drawn) [Example 32, (2S)-2-((((3′-chloro-[1,1′-biphenyl]-4-yl)oxy)(((2R,3R,4R,5R)-5-(2,4-dioxo-3,4-dihydropyrimidin-1(2H)-yl)-4-fluoro-3-hydroxy-4-methyltetrahydrofuran-2-yl)methoxy)phosphoryl)amino)propanoic Acid Isopropyl Ester], the EC50 in the data set on HCV 1b replicon was found to be 68 nM.

`CC(C)OC(=O)[C@H](C)NP(=O)(OC[C@H]1O[C@@H](n2ccc(=O)[nH]c2=O)[C@](C)(F)[C@@H]1O)Oc1ccc(-c2cncs2)cc1` (stereo partly drawn) [Example 17]: the EC50 with HCV 1b replicon stood at 258 nM.
